# Experimental data: patent US20250339566A1, “INHIBITORS OF FIBROBLAST ACTIVATION PROTEIN” (UNIVERSITEIT ANTWERPEN, priority 2022, published 2025)
# Assays:
# Format in all cases: biochemical
# human DPP8 = target: T1, human DPP8 (Homo sapiens, UniProt Q6V1X1); experiment: DPP8 IC50 measurement (Ala-Pro-pNA); details: for IC50: Ala-Pro-pNA 300 μM, pH 7.4, read-out: DPP8 IC50; for Selectivity index DPP8: IC50(DPP8)/IC50(FAP)
# T1 construct: made in house; host or cells: Sf9 insect cells (baculovirus)
# T1 sequence (Q6V1X1 whole entry): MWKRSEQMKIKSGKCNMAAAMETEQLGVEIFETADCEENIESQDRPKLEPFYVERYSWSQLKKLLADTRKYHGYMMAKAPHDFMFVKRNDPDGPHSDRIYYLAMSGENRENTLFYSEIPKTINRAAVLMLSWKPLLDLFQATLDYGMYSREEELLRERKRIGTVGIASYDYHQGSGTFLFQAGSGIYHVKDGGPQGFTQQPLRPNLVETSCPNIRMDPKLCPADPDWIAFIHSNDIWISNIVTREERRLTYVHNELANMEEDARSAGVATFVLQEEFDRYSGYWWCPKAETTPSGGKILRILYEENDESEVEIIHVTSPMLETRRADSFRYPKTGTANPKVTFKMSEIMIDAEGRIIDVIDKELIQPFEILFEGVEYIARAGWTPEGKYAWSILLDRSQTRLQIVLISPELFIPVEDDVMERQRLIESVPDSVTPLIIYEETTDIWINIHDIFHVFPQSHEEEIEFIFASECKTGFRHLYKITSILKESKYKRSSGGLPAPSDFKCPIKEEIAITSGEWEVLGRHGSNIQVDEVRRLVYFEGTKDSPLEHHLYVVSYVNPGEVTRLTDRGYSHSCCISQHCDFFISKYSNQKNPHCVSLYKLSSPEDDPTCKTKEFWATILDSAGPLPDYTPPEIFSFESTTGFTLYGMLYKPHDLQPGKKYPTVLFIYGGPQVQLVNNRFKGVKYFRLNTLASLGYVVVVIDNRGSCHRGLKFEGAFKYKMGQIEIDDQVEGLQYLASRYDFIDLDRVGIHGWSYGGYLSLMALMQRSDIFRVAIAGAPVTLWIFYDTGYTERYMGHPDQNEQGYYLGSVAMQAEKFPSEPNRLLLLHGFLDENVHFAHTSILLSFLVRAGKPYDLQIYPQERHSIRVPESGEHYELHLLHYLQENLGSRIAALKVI
# Description: (§1) Used Enzymes in these Assays: • A gateway-entry clone for human FAP was purchased from Dharmacon (Accession number DQ891423) and the human secretion signal was replaced with the HoneyBee mellitin secretion signal. For transfection and expression of FAP in Sf9 insect cells the C-terminal BaculoDirect kit from LifeTechnologies was used. The enzyme was purified from the supernatant of the insect cells using immobilized Ni-chelating chromatography (GE healthcare, Diegem, Belgium), followed by anion-exchange chromatography using a 1 mL HiTrap Q and size exclusion chromatography using the Superdex 200 column (GE healthcare, Diegem, Belgium). • Human recombinant PREP was expressed in BL21(DE3) cells and purified using immobilized Co-chelating chromatography (GE healthcare), followed by anion-exchange chromatography on a 1 ml Mono Q column (GE healthcare). • DPP4 was purified from human seminal plasma. • Gateway-entry clones for human DPP8 and DPP9 were purchased from Dharmacon (Accession numbers DQ891733 and DQ892325 respectively). For transfection and expression of DPP8 and DPP9 in Sf9 insect cells the N-terminal BaculoDirect kit from LifeTechnologies was used. The enzymes were purified using immobilized Ni-chelating chromatography (GE healthcare, Diegem, Belgium), followed by anion-exchange chromatography using a 1 mL Mono Q (GE healthcare, Diegem, Belgium). • Recombinant human DPP2 was purchased from R&D.
# (§2) Eight concentrations of inhibitors/probe were tested. The final DMSO concentration was kept constant during the experiment to exclude any effects. Inhibitors were pre-incubated with the enzyme for 15 minutes at 37° C., afterwards the substrate was added and the velocities of AMC release were measured kinetically at λex=380 nm, λem=465 nm for at least 10 minutes at 37° C. […] Eight concentrations of inhibitors were tested. The final DMSO concentration in kept constant during the experiment to exclude any effects. Inhibitors were pre-incubated with the enzyme for 15 minutes at 37° C., afterwards the substrate was added and the velocities of AMC release were measured kinetically at λex=380 nm, λem=465 nm for at least 10 minutes at 37° C. […] At least eight different inhibitor concentrations were used. The final DMSO concentration is kept constant during the experiment to exclude any effects. Inhibitors were pre-incubated with the enzyme for 15 minutes at 37° C., afterwards the substrate was added and the velocities of pNA release were measured kinetically at 405 nm for at least 10 minutes at 37° C. Measurements were done on the Infinite 200 (Tecan Group Ltd.) and the Magellan software was used to process the data. • For DPP2: Initial velocity measurements were carried out. Lys-Ala-pNA was used as the substrate at a concentration of 1 mM at pH 5.5 (100 mM NaAc, 10 mM EDTA, 14 μg/mL aprotinin). Inhibitors were tested at one concentration, 5 μM, being the final concentration in the well. Inhibitors were pre-incubated with the enzyme for 15 minutes at 37° C., afterwards the substrate was added and the velocities of pNA release were measured kinetically at 405 nm for at least 10 minutes at 37° C. Measurements were done on the Infinite 200 (Tecan Group Ltd.) and the Magellan software was used to process the data.
# human FAP = target: T2, human FAP (Homo sapiens, UniProt Q12884); experiment: FAP IC50 measurement (Z-Gly-Pro-AMC); details: Z-Gly-Pro-AMC 50 μM, pH 8, 15 min pre-incubation
# T2 construct: the human secretion signal was replaced with the HoneyBee mellitin secretion signal; honeybee melittin secretion signal (replaces the native signal) (N); made in house; host or cells: Sf9 insect cells (baculovirus), purified from supernatant
# T2 sequence (Q12884 26-760 limits assumed): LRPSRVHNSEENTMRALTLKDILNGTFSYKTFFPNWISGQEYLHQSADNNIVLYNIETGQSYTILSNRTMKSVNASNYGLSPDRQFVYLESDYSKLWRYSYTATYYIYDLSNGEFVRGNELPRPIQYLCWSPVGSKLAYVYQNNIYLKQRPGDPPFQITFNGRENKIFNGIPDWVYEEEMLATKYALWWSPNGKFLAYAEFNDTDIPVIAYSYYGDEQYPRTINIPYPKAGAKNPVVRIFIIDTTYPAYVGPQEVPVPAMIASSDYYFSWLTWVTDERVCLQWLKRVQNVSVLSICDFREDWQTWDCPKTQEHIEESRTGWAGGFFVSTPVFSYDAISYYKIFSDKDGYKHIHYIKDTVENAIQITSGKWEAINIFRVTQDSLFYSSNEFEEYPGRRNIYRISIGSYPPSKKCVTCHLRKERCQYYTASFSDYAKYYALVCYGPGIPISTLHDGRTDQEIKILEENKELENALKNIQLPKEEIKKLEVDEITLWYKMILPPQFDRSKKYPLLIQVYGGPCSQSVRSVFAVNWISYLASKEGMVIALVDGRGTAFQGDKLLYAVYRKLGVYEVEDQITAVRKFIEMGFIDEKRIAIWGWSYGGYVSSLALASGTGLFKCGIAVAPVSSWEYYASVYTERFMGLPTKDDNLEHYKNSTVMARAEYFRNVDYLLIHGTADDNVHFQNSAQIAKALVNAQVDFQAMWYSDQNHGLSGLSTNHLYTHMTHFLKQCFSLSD
# Description: as §1, §2
# human DPP9 = target: T3, human DPP9 (Homo sapiens, UniProt Q86TI2); experiment: DPP9 IC50 measurement (Ala-Pro-pNA); details: for IC50: Ala-Pro-pNA 150 μM, pH 7.4; for Selectivity index DPP9: IC50(DPP9)/IC50(FAP)
# T3 construct: made in house; host or cells: Sf9 insect cells (baculovirus)
# T3 sequence (Q86TI2 whole entry): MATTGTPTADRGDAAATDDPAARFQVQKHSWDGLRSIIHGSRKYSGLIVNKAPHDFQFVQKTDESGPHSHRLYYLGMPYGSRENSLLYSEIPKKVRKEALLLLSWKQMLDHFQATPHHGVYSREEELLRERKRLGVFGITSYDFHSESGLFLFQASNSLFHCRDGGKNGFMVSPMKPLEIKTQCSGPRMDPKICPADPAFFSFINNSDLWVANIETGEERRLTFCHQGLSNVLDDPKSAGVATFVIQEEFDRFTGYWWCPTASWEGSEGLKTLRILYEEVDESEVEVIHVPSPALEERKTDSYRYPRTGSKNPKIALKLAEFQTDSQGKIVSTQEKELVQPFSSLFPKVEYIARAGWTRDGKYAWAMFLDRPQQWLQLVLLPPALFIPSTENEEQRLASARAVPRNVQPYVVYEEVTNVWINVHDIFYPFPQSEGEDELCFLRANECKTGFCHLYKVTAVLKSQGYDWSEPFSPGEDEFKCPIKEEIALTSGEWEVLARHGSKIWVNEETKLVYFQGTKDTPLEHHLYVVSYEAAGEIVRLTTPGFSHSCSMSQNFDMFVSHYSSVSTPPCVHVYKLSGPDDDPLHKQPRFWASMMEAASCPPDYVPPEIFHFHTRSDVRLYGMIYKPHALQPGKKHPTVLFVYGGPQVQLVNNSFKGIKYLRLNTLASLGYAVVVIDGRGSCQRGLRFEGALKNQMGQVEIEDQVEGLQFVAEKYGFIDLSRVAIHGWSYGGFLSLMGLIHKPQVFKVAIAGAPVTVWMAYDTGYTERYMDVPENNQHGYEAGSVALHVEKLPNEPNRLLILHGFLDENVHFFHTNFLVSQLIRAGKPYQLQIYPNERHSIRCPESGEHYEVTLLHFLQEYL
# Description: as §1, §2
# Human recombinant PREP = target: T4, Human recombinant PREP (Homo sapiens, UniProt P48147); experiment: PREP IC50 measurement (N-succinyl-Gly-Pro-AMC); details: for Selectivity index PREP: IC50(PREP)/IC50(FAP); for IC50: N-succinyl-Gly-Pro-AMC 250 μM, pH 7.4
# T4 construct: made in house; host or cells: E. coli BL21(DE3)
# T4 sequence (P48147 1-710): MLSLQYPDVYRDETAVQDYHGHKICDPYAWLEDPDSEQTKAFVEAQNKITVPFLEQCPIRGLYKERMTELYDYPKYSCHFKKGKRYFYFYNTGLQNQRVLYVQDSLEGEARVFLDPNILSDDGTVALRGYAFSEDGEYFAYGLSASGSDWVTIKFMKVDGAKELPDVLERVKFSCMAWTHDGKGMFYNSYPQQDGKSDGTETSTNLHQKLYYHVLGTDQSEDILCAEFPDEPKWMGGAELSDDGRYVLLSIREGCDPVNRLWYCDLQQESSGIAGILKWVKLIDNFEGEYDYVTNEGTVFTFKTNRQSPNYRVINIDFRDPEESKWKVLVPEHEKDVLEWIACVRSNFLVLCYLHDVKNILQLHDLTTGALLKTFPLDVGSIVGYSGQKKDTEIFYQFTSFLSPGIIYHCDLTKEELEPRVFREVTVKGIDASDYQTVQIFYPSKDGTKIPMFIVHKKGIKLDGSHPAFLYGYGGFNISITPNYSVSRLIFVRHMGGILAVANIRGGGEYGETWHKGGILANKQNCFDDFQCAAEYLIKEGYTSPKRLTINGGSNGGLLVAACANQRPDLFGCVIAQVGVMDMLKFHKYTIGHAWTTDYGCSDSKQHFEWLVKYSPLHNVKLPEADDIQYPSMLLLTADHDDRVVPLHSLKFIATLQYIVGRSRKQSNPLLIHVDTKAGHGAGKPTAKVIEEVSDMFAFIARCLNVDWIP
# Description: as §1, §2
# DPP4 = target: T5, DPP4 (Homo sapiens, UniProt P27487); experiment: DPP4 IC50 measurement (Ala-Pro-pNA); details: for IC50: Ala-Pro-pNA 25 μM, pH 7.4; for Selectivity index DPP4: IC50(DPP4)/IC50(FAP)
# T5 construct: DPP4 was purified from human seminal plasma; from tissue; host or cells: human seminal plasma
# T5 sequence (P27487 whole entry): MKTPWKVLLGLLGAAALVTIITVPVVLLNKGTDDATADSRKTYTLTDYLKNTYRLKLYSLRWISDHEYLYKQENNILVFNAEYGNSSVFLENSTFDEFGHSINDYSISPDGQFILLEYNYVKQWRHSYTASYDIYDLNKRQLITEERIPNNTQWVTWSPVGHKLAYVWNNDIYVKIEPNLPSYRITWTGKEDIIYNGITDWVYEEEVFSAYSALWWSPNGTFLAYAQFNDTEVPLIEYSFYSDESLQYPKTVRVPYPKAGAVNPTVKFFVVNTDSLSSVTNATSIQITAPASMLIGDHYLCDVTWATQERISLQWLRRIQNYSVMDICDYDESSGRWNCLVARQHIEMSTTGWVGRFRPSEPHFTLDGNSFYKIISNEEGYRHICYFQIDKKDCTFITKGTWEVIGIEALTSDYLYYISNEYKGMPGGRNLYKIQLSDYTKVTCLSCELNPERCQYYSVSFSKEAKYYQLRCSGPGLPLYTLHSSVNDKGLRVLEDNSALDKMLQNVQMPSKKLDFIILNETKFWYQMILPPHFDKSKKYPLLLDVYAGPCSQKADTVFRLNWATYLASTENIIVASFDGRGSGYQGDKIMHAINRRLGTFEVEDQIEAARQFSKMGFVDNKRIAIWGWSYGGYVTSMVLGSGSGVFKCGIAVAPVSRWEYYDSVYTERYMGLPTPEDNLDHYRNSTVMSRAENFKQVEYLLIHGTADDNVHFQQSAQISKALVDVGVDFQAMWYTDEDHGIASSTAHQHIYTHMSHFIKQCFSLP
# Description: as §1, §2
smiles,measurement,setting,value
"C[N+]1(CCCOc2ccc3nccc(C(=O)NCC(=O)N4CC(F)(F)C[C@H]4C#N)c3c2)CCN(C(=O)c2ccc(B(O)O)cc2)CC1.Cc1ccc(S(=O)(=O)[O-])cc1 [Compound 12, (S)-4-(4-boronobenzoyl)-1-(3-((4-((2-(2-cyano-4,4-difluoropyrrolidin-1-yl)-2-oxoethyl)carbamoyl)quinolin-6-yl)oxy)propyl)-1-methylpiperazin-1-ium 4-methylbenzenesulfonate]",IC50,human DPP8,> 1 µM
same,Selectivity index DPP8,human DPP8,>1700
same,IC50,human FAP,0.00057 ± 5e-05 µM
same,IC50,human DPP9,> 1 µM
same,Selectivity index DPP9,human DPP9,>1700
same,Selectivity index PREP,Human recombinant PREP,>17000
same,IC50,Human recombinant PREP,> 10 µM
same,IC50,DPP4,> 1 µM
same,Selectivity index DPP4,DPP4,>17000
"C[N+]1(CCCOc2ccc3nccc(C(=O)NCC(=O)N4CC(F)(F)C[C@H]4C#N)c3c2)CCN(C(=O)c2ccc(I)cc2)CC1 [Compound 13, (S)-1-(3-((4-((2-(2-cyano-4,4-difluoropyrrolidin-1-yl)-2-oxoethyl)carbamoyl)quinolin-6-yl)oxy)propyl)-4-(4-iodobenzoyl)-1-methylpiperazin-1-ium hexafluorophosphate(V)]",IC50,human DPP8,> 1 µM
same,Selectivity index DPP8,human DPP8,>2200
same,IC50,human FAP,0.00044 ± 0.0001 µM
same,IC50,human DPP9,0.67 ± 0.03 µM
same,Selectivity index DPP9,human DPP9,>2200
same,Selectivity index PREP,Human recombinant PREP,>22000
same,IC50,Human recombinant PREP,> 10 µM
same,IC50,DPP4,> 10 µM
same,Selectivity index DPP4,DPP4,>22000
"C[N+]1(CCCOc2ccc3nccc(C(=O)NCC(=O)N4CC(F)(F)C[C@H]4C#N)c3c2)CCN(C(=O)c2ccc(F)cc2)CC1 [Compound 14, (S)-1-(3-((4-((2-(2-cyano-4,4-difluoropyrrolidin-1-yl)-2-oxoethyl)carbamoyl)quinolin-6-yl)oxy)propyl)-4-(4-fluorobenzoyl)-1-methylpiperazin-1-ium]",IC50,human DPP8,> 10 µM
same,Selectivity index DPP8,human DPP8,>10000
same,IC50,human FAP,0.00095 ± 0.0001 µM
same,IC50,human DPP9,> 1 µM
same,Selectivity index DPP9,human DPP9,>1000
same,Selectivity index PREP,Human recombinant PREP,>10000
same,IC50,Human recombinant PREP,> 10 µM
same,IC50,DPP4,> 10 µM
same,Selectivity index DPP4,DPP4,>10000
